From patent US20010016605A1, “Use of a phenylurea derivative for controlling crown and root rot in beet” (priority 2000, published 2001) come the findings set out here.

The subject of the test is Rhizoctonia solani AG 2-2. Briefly: Inhibition of the growth of Rhizoctonia solani AG 2-2 on nutrient medium / protective. Conditions: 0% = untreated control, 100% = complete inhibition of fungal growth, evaluation after 2 to 14 days. It is filed as cell-based. As for the experimental part:
Inhibition of the growth of Rhizoctonia solani AG 2-2 (anastomosis group 2-2)/protective
The substances are tested on suitable nutrient media for their activity against Rhizoctonia solani AG 2-2. To this end, the stated amount of active compound is in each case added to and intensively mixed with the stated amount of nutrient medium. The mixture in question is transferred into a culture vessel, inoculated with Rhizoctonia solani AG 2-2 and incubated at a suitable temperature. At certain intervals, the growth of the microorganism is assessed.
A nutrient medium of the following composition is used:
These components are dissolved in 1000 ml of distilled water and autoclaved at 121° C. for 30 minutes. The active compound at the stated concentration is then mixed with the nutrient medium. However, in all cases solvent and nutrient medium are present in the following weight ratio:
These mixtures are poured into Petri dishes having a diameter of 9 cm and a volume of 10 ml. Once the nutrient substrate has cooled and solidified, it is inoculated in the centre of the Petri dish with an inoculation piece having a diameter of 0.5 cm.
Evaluation is carried out after 2 to 14 days—depending on the rate of growth of the microorganism. The effect on the development of the culture is determined by comparing the individual test samples. 0% means an efficacy which corresponds to that of the untreated test variant. In contrast, an efficacy of 100% means complete inhibition of fungal growth.

Where [1] appears, read: active compound application rate 0.1 ppm in nutrient medium.
The mark [2] stands for this setting: active compound application rate 1 ppm in nutrient medium.
Where [3] appears, read: active compound application rate 10 ppm in nutrient medium.
The mark [4] stands for this setting: active compound application rate 100 ppm in nutrient medium.

Take `O=C(Nc1ccccc1)N(Cc1ccc(Cl)cc1)C1CCCC1` [pencycuron, N-4-chloro-benzyl-N-cyclopentyl-N′-phenylurea]: the Efficacy in % is, setting by setting: under setting [1], 70%; under setting [2], 98%; under setting [3], 100%; under setting [4], 100%.

Compound `Cc1cc(O)no1` [hymexazol] registered an Efficacy in % under setting [1] of 7%, an Efficacy in % under setting [2] of 5%, an Efficacy in % under setting [3] of 8% and an Efficacy in % under setting [4] of 35%.

`CO/C=C(/C(=O)OC)c1ccccc1Oc1cc(Oc2ccccc2C#N)ncn1` [azoxystrobin]: the Efficacy in % runs as follows: under setting [1], 45%; under setting [2], 48%; under setting [3], 59%; under setting [4], 64%.
